Test results as given in publication PMC10343654, “Evaluation of Novel B1R/B2R Agonists Containing TRIOZAN™ Nanoparticles for Targeted Brain Delivery of Antibodies in a Mouse Model of Alzheimer Disease” (Molecules, 2023).
Square brackets hold non-standard residues; d marks the D form. Peptide text beside a SMILES is read from it. ξ: configuration not given here. Oic = O=C(O)[C@@H]1C[C@@H]2CCCC[C@@H]2N1; d2Nal = N[C@H](Cc1ccc2ccccc2c1)C(=O)O; Hyp = O=C(O)[C@@H]1C[C@@H](O)CN1; 2Thi = N[C@@H](Cc1cccs1)C(=O)O; Gly(N-cHex) = O=C(O)CNC1CCCCC1; ξαMeF = CC(N)(Cc1ccccc1)C(=O)O; Orn = NCCC[C@H](N)C(=O)O; βAla = NCCC(=O)O; Mpa = O=C(O)CCS

Tests used:
human kinin B1R = molecular target: T1, human kinin B1R (Homo sapiens, UniProt P46663); test: Competition binding assay on HEK293 cells stably expressing human kinin B1R, radioligand [3H]Lys[Leu8]desArg9BK; details: displacement of radioligand, read-out: hB1R IC50
T1 construct: expressed in transfected cells
T1 sequence (P46663 1-353): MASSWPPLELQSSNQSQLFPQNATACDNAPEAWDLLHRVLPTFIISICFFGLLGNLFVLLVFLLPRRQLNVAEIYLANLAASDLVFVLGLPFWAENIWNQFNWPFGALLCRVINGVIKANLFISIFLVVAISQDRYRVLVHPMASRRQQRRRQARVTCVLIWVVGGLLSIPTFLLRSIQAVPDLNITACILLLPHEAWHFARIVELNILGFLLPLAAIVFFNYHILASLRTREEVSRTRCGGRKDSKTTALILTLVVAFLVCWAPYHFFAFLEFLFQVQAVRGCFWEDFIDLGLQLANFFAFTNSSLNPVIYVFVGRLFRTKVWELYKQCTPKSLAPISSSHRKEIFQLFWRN
Procedure: (§1) Competition binding assays were carried out essentially as described previously. Briefly, HEK293 cells stably expressing either human kinin B1R or B2R were grown in 24-well plates and incubated with 4 nM [^3H]Lys[[…]]desArg^9BK (for B1R) or with 1 nM [^3H]BK/well (for B2R) in serum-free DMEM for 1-2 h in the absence or presence of increasing concentrations of competitors ([…]-10^-5 M for peptides; 10^-10-10^-4 g/mL for peptides-coupled NPs). Radioactivity of samples was measured by a β-scintillation counter (PerkinElmer, Woodbridge, ON, Canada). Binding affinities of compounds were expressed in terms of IC50 values-the concentrations of competing compounds (i.e., free peptides, TMC-peptides conjugates and peptides coupled to NPs) causing 50% displacement of specific binding of the radioligand. Data are means of 2-3 independent experiments.

human kinin B2R = molecular target: T2, human kinin B2R (Homo sapiens, UniProt P30411); test: Competition binding assay on HEK293 cells stably expressing human kinin B2R, radioligand [3H]BK; details: displacement of [3H]BK, read-out: hB2R IC50
T2 construct: expressed in transfected cells
T2 sequence (P30411 1-391): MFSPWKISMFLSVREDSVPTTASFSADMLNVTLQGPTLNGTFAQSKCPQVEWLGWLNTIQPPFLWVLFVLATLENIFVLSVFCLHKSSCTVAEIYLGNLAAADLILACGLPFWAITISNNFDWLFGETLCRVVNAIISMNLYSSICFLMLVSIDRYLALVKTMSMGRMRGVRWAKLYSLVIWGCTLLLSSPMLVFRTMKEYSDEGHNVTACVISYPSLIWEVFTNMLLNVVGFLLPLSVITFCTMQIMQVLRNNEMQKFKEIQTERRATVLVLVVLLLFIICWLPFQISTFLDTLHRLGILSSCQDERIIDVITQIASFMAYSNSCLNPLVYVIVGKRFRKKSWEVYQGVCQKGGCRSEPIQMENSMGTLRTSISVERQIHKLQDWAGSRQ
Procedure: as §1

[1] = parameters: method as in PMID 30837797; details: in rodents; cited from earlier work

IC50 (human kinin B1R) | IC50 (human kinin B2R) | Molecule | half-life (t½) [1]
10 nM | – | CC[C@H](C)[C@H](NC(=O)[C@@H](Cc1ccc2ccccc2c1)NC(=O)[C@H](CO)NC(=O)C(C)(Cc1ccccc1)NC(=O)CNC(=O)[C@@H]1CCCN1C(=O)[C@@H]1C[C@@H]2CCCC[C@@H]2N1C(=O)[C@H](CCCNC(=N)N)NC(=O)[C@H](CCCN)NC(=O)CCNC(=O)CCS)C(=O)O (stereo partly drawn) [MAB7122, Mpa-βAla-Orn-Arg-Oic-Pro-Gly-(αMe)Phe-Ser-DβNal-Ile-OH] ([Mpa][βAla][Orn]R[Oic]PG[ξαMeF]S[d2Nal]I-OH) | –
– | 1180 nM | N=C(N)NCCC[C@H](NC(=O)[C@H](Cc1cccs1)NC(=O)CN(C(=O)[C@H](CO)NC(=O)[C@H](Cc1cccs1)NC(=O)CNC(=O)[C@@H]1C[C@@H](O)CN1C(=O)[C@@H]1CCCN1C(=O)[C@H](CCCNC(=N)N)NC(=O)CCNC(=O)CCS)C1CCCCC1)C(=O)O [MAB7053, Mpa-βAla-Arg-Pro-Hyp-Gly-Thi-Ser-^NChg-Thi-Arg-OH] ([Mpa][βAla]RP[Hyp]G[2Thi]S[Gly(N-cHex)][2Thi]R-OH) | –
0.8 nM | – | N=C(N)NCCC[C@H](NC(=O)[C@H](CCCCN)NC(=O)CCNC(=O)CCS)C(=O)N1CCC[C@H]1C(=O)N1CCC[C@H]1C(=O)NCC(=O)N[C@@H](Cc1ccccc1)C(=O)N[C@@H](CO)C(=O)N1CCC[C@H]1C(=O)N[C@H](Cc1ccccc1)C(=O)O [MAB7108, Mpa-βAla-Lys-Arg-Pro-Pro-Gly-Phe-Ser-Pro-DPhe-OH] | –

The next lines start with the molecule.

Molecule | IC50 (human kinin B1R) | IC50 (human kinin B2R) | half-life (t½) [1]
CC[C@H](C)[C@H](NC(=O)[C@@H](Cc1ccc2ccccc2c1)NC(=O)[C@H](CO)NC(=O)C(C)(Cc1ccccc1)NC(=O)CNC(=O)[C@@H]1CCCN1C(=O)[C@@H]1C[C@@H]2CCCC[C@@H]2N1C(=O)[C@H](CCCNC(=N)N)NC(=O)[C@H](CCCN)NC(C)=O)C(=O)O (stereo partly drawn) [R954, AcOrn-Arg-Oic-Pro-Gly-(αMe)Phe-Ser-DβNal-Ile-OH] (Ac-[Orn]R[Oic]PG[ξαMeF]S[d2Nal]I-OH) | 2 nM | > 10000 nM | –
CNCC(=O)N[C@@H](CCCCN)C(=O)N[C@@H](CCCNC(=N)N)C(=O)N1CCC[C@H]1C(=O)N1CCC[C@H]1C(=O)NCC(=O)N[C@@H](Cc1ccccc1)C(=O)N[C@@H](CO)C(=O)N1CCC[C@H]1C(=O)N[C@H](Cc1ccccc1)C(=O)O [NG29, Sar-Lys-Arg-Pro-Pro-Gly-Phe-Ser-Pro-DPhe-OH] | 0.5 nM | > 10000 nM | –
TRIOZAN™-MAB7053: TRIOZAN (trimethyl chitosan) conjugated with 7 equivalents of B2R agonist peptide MAB7053 (RPPGXSXXR; Residue 3 is Hyp (trans-4-hydroxy-L-Pro); residues 5 and 8 are Thi (alpha-(2-thienyl)-L-Ala); residue 7 is N-cyclohexyl-Gly; free C-terminal acid; N-terminal Mpa-betaAla spacer, thioether-linked via M) | – | 10600 nM | –
N=C(N)NCCC[C@H](NC(=O)[C@H](Cc1cccs1)NC(=O)CN(C(=O)[C@H](CO)NC(=O)[C@H](Cc1cccs1)NC(=O)CNC(=O)[C@@H]1C[C@@H](O)CN1C(=O)[C@@H]1CCCN1C(=O)[C@@H](N)CCCNC(=N)N)C1CCCCC1)C(=O)O [NG291, H-Arg-Pro-Hyp-Gly-Thi-Ser-^NChg-Thi-Arg-OH] (H-RP[Hyp]G[2Thi]S[Gly(N-cHex)][2Thi]R-OH) | > 10000 nM | 2 nM | –
ANX-005: C1q function blocking humanized IgG4 mAb (Annexon Biosciences) (antibody, chains of the INN, looked up, V domains shown) VH: QVQLVQSGAELKKPGASVKVSCKSSGYHFTSYWMHWVKQAPGQGLEWIGVIHPNSGSINYNEKFESRVTITVDKSTSTAYMELSSLRSEDTAVYYCAGERDSTEVLPMDYWGQGTTVTVSS VL: DVQITQSPSSLSASLGERATINCRASKSINKYLAWYQQKPGKAPKLLIYSGSTLQSGIPARFSGSGSGTDFTLTISSLEPEDFAMYYCQQHNEYPLTFGQGTKLEIK | – | – | ~ 18 h
